Experimental data reported in publication PMC11106165, “Repurposing the KCa3.1 Blocker Senicapoc for Ischemic Stroke” (Translational Stroke Research, 2023).

Experiments:
[1] = test system: MMC (mouse microglial cell line); assay: Fluo-4 calcium imaging of ATP-induced Ca2+ signaling in MMC; type: cell-based; details: 100 µM ATP, Fluo-4 ΔF/F
Procedure: Real-time changes of [Ca^2+]i in MMCs seeded on glass coverslips at a density of 10,000 cells/cm^2 were measured using the time-lapse imaging module on a BZ-X780 fluorescence microscopy (Keyence LLC, Campbell, CA) and the fluorescent calcium indicator Fluo-4/AM from Invitrogen (ThermoFisher, Waltham, MA) as previously described. For testing the effect of KCa3.1 inhibition on intracellular calcium changes, cells were pre-incubated with senicapoc during the de-esterification step and throughout the course of the experiment. All fluorescence measurements were made at 2-s intervals at room temperature from subconfluent areas of the coverslips to ensure that only individual microglia were measured. Image data were analyzed off-line with Fiji using the ROI-1 click tool and the change in microglial [Ca^2+]i was represented as ΔF/F (change in fluorescence after baseline-subtraction).

[2] = design: method as in PMID 31019997; details: mice; cited from earlier work
[3] = test system: male C57BL/6 J mice, tMCAO; assay: tMCAO in mice, 14-point tactile and proprioceptive limb-placing score; type: in vivo, mouse; details: for maximum neurological score reached: vehicle maximum 5; for average neurological score (14-point): started 12 h, day 8, vehicle average 3
Procedure: Reversible focal cerebral ischemia was induced by occlusion of the left middle cerebral artery (MCA) according to the classic filament method of Zea Longa as previously described for mice by our laboratory. All surgeries were performed in the MicroSurgery Core of the UC Davis School of Medicine by a microsurgeon with 20 years of surgical experience using a silicone rubber-coated nylon monofilament with a tip diameter of 0.21 ± 0.02 mm (No. 702112PK5Re, Doccol Corporation). Anesthesia was induced with 5% isoflurane and then maintained with 0.5 to 1.5% isoflurane in medical pure oxygen administered through a facemask. To assure consistent and continuous reduction of cerebral blood flow (CBF), a laser Doppler (Moor Instruments: MOORVMS-LDF) probe adapter was affixed to the surface of the skull over the brain area supplied by the MCA using dental cement. The probe remained in place throughout the MCAO surgery and CBF was measured continuously to confirm occlusion and later establishment of reperfusion. Animals were kept under anesthesia and body temperature was monitored throughout the whole procedure and maintained at > 36.5 °C using a feedback-controlled heating pad. Following 60 min of MCAO, the filament was withdrawn to allow reperfusion. Blood flow measurements were continued for another 15 min before removing the adapter and the laser Doppler probe. Animals received subcutaneous Buprenex at 0.02 mg/kg every 12 h to limit post-surgical pain for 24 h after surgery. The survival rate was 93%. […] In this study, out of the animals surviving to day 8 (45 out of 48), two animals were excluded because they lacked an obvious neurological deficit score at 12 h. Animals that met inclusion criteria were assigned to the 3 groups (low- and high-dose senicapoc or vehicle) based on a computer-generated randomization scheme. Six sham animals, where the filament was placed into the external carotid artery but not advanced, were used as controls for the qPCR experiments.
Starting at 12 h after tMCAO, and following the first neurological scoring, animals received either the vehicle, Miglyol 812 neutral oil (Medium chain triglycerides, Spectrum Chemicals), a low dose of senicapoc at 10 mg/kg, or a high dose of senicapoc at 40 mg/kg via intraperitoneal (IP) injection. Mice then received the same dosage of senicapoc (or vehicle) IP every 12 h for a total of 14 doses. In the experiment in Fig. 7, drug administration was started 3 h after reperfusion. Senicapoc was synthesized in our laboratory as described. Chemical identity and purity (> 98%) were tested by ^1H and ^13C-NMR and HPLC.
Since filament MCAO induces infarction in both the striatum and the cortex, we used the 14-point score tactile and proprioceptive limp-placing test to evaluate mice every 24 h. […] The scoring was performed as previously described in detail. The investigator performing the scoring was blinded to the treatment groups.

[4] = Brain tissue extract binding by rapid equilibrium dialysis; type: in vitro ADME; details: mouse brain extract, triplicate
Procedure: In order to determine whether senicapoc sufficiently engages its target, additional mice were subjected to 60 min of MCAO, treated with 40 mg/kg senicapoc IP 12 h after reperfusion and then sacrificed 1 h, 4 h, and 12 h later. Mice were deeply anesthetized with isoflurane, and blood was collected from the vena cava into EDTA tubes, and then transcardially perfused with 30 mL of saline. The brain was removed, and the forebrain divided into ipsi- and contralateral side. Brain and plasma samples were stored at − 80 °C pending analysis and then prepared and analyzed as previously described using a Waters Acquity UPLC (Waters, NY) equipped with a Acquity UPLC BEH 1.7 μm C-18 column interfaced to a TSQ Quantum Access Max mass spectrometer (Thermo Fisher Scientific, MA). Senicapoc was analyzed by the selective reaction monitoring transition of its molecular ion peak 324.09 (M + 1) into 228.07, 200.07, 183.11, and 122.18 m/z. An 8-point calibration curve ranging from 50 nM to 10 μM was used for quantification. Senicapoc plasma protein binding was determined with mouse plasma or mouse brain extract in triplicate using rapid equilibrium devices with a molecular weight cutoff of 8 kD (RED, Fisher Scientific).

human tPA = molecular target: T1, human tPA (Homo sapiens, UniProt P00750); assay: Chromogenic tPA activity assay; type: biochemical; details: 0.5 μM and 5 μM, 30-min assay, PBS with 10% human serum
T1 construct: purchased Abcam ab108905
Excerpt: The commercially available tPA Activity Assay Kit (Abcam, ab108905) was used to assess whether senicapoc and TRAM-34 affect the ability of human tPA to cleave its substrate plasminogen similar to protocols published by Lapchak and Boitano [38] and Lapchak et al.. Reactions were run in optically clear flat-bottom 96-well plates (Corning, Catalog #3904). Human plasminogen activator inhibitor-1 (PAI-1; Sigma-Aldrich CC4075) was used as a positive control. Human plasminogen, the chromogenic plasmin substrate, and human tPA were included in the tPA Activity Assay Kit. […] The reactions were pre-incubated at 37 °C for 5 min prior to the addition of the chromogenic plasmin substrate and subsequently placed in a heated SpectraMax M5 spectrophotometer. Absorbances at 405 nm were measured every 30 s for 30 min.

T1 sequence (P00750 36-562): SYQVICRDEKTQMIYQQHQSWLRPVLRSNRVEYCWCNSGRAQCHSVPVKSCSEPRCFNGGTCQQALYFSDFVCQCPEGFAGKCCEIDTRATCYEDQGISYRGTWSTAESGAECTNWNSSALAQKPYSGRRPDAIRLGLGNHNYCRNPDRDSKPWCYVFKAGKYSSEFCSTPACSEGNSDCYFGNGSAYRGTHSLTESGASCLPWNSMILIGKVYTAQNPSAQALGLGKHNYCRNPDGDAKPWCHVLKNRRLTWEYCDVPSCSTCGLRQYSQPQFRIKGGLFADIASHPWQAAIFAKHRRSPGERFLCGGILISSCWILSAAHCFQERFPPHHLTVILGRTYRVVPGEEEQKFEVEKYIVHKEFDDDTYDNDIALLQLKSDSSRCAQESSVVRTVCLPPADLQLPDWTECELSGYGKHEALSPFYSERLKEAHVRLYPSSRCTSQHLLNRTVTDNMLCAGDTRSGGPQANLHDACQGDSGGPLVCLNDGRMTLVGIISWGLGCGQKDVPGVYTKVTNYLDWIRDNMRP

For `NC(=O)C(c1ccccc1)(c1ccc(F)cc1)c1ccc(F)cc1` [senicapoc], the “Ca2+ influx induced by ATP” value [1] is listed as “concentration-dependently reduced”, the half-life [2] is listed as 1 h and the “maximum neurological score reached” value ([3]; 10 mg/kg low-dose group) is listed as 9. For the same molecule, the “average neurological score (14-point)” value ([3]; 10 mg/kg) was 7, the “maximum neurological score reached” value ([3]; 40 mg/kg high-dose group) was 10 and the “sensorimotor coordination (neurological deficit score)” value ([3]; 40 mg/kg started 3 h after tMCAO) was “improved on both day 3 and day 8”. For the same molecule, the “average neurological score (14-point)” value ([3]; 40 mg/kg) was 9, the “binding to brain tissue extract” value [4] was 98.1 ± 0.5% and the “effect on tPA activity (absorbance at 405 nm)” value (human tPA) was “no effect”.
